Experiment [1] has as its target EGFR (human) (UniProt P00533).
Experiment [2] deals with EGFR (human) (UniProt P00533). The conditions noted are these: a431.

Results on 56 molecules are retold here after the Kinase Knowledgebase extract (Sharma et al. 2016).

Where “and” joins values, the source holds several entries; their conditions need not be identical. Identical values can stand only once.

Chain of EGFR (human) (P00533 whole entry, looked up): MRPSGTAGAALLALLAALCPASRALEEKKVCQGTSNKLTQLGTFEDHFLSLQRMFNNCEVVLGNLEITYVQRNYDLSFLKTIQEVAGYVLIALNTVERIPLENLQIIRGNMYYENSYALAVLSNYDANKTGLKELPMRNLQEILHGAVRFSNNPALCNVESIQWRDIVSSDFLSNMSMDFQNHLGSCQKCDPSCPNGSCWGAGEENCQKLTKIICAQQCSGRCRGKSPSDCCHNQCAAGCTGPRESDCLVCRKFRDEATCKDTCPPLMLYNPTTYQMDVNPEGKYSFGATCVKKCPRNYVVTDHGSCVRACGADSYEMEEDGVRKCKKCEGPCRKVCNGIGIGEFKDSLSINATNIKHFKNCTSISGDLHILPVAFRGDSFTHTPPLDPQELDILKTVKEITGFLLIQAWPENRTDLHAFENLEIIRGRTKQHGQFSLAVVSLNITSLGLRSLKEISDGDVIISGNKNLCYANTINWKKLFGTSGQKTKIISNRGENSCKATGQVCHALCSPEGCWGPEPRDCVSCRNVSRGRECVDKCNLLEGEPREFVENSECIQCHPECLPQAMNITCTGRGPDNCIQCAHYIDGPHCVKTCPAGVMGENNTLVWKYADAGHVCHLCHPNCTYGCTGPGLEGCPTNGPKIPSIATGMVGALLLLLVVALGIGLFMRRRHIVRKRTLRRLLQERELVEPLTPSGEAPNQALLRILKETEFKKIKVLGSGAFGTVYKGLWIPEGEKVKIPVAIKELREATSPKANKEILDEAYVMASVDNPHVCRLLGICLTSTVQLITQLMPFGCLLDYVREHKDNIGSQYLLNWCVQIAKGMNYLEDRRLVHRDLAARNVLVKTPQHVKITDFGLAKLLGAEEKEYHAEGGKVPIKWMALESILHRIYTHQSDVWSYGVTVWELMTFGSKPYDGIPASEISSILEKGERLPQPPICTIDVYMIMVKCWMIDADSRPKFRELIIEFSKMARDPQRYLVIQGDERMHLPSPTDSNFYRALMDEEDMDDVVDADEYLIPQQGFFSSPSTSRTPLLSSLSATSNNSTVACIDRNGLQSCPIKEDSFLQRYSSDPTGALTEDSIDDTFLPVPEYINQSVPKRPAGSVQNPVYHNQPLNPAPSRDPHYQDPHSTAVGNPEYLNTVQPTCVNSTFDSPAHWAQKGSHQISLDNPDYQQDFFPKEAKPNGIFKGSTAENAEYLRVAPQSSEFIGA

`OC(CN1CCOCC1)Cn1ccc(-c2ccc3ncnc(Nc4ccc5c(cnn5Cc5cccc(F)c5)c4)c3c2)c1` (configuration not stated): the IC50 amounted to 5 nM against EGFR (human) [1] and 170 nM against EGFR (human) [2].

For the molecule `OC(CN1CCN(Cc2cccnc2)CC1)Cn1ccc(-c2ccc3ncnc(Nc4ccc5c(cnn5Cc5cccc(F)c5)c4)c3c2)c1` (configuration not stated), the figures for the IC50 at EGFR (human) [1] and against EGFR (human) [2] were 282 nM and 1290 nM, respectively.

Turning to `Fc1cccc(COc2ccc(Nc3ncnc4ccc(-c5ccn(CCCN6CCCCC6)c5)cc34)cc2Cl)c1`, the IC50 was determined as 9 nM against EGFR (human) [1] and 1980 nM on EGFR (human) [2].

Take `COCCNC(=O)c1cn(-c2ccc3ncnc(Nc4ccc(OCc5ccccn5)c(Cl)c4)c3c2)cc1CCO`: the concentration for half-maximal inhibition (IC50) against EGFR (human) [1] came to 78 nM; on EGFR (human) [2], 200 nM.

`CS(=O)(=O)CCOCC(O)Cn1ccc(-c2ccc3ncnc(Nc4ccc(OCc5cccc(F)c5)c(Cl)c4)c3c2)c1` (configuration not stated): the IC50 stood at 38 nM at EGFR (human) [1] and 615 nM against EGFR (human) [2].

For `O=C1OCCc2cn(-c3ccc4ncnc(Nc5ccc(OCc6cccc(F)c6)c(Cl)c5)c4c3)cc21`, the results for the concentration for half-maximal inhibition (IC50) against EGFR (human) [1] and against EGFR (human) [2] were 5 nM and 570 nM, respectively.

As for `Fc1cccc(COc2ccc(Nc3ncnc4ccc(-n5ccc(CNCCN6CCOCC6)c5)cc34)cc2Cl)c1`, the IC50 is 3 nM against EGFR (human) [1] and 20 nM against EGFR (human) [2].

Consider `CS(=O)(=O)CCNCc1cccn1-c1ccc2ncnc(Nc3ccc(OCc4cccc(F)c4)c(Cl)c3)c2c1`, for which the results for the IC50 against EGFR (human) [1] and against EGFR (human) [2] were 12 nM and 270 nM, respectively.

As to `OCCn1ccc(-c2ccc3ncnc(Nc4ccc(OCc5cccc(F)c5)c(Cl)c4)c3c2)c1`, the IC50 on EGFR (human) [1] amounted to 52 nM; on EGFR (human) [2] it was 40 nM.

On to `O=C(Cn1ccc(-c2ccc3ncnc(Nc4ccc(OCc5cccc(F)c5)c(Cl)c4)c3c2)c1)N1CCN(CC2CC2)CC1`, for which the half-maximal inhibitory concentration (IC50) against EGFR (human) [1] was 443 nM; at EGFR (human) [2], 1980 nM.

On to `CN1CCN(CCn2ccc(-c3ccc4ncnc(Nc5ccc(OCc6cccc(F)c6)c(Cl)c5)c4c3)c2)CC1`, for which the results for the IC50 against EGFR (human) [1] and on EGFR (human) [2] were 17 nM and 1780 nM, respectively.

As to `CN1CCN(C(=O)Cn2ccc(-c3ccc4ncnc(Nc5ccc(OCc6cccc(F)c6)c(Cl)c5)c4c3)c2)CC1`, the values for the IC50 against EGFR (human) [1] and against EGFR (human) [2] were 6 nM and 298 nM, respectively.

For `CCN(CC)C[C@@H](O)Cn1ccc(-c2ccc3ncnc(Nc4ccc5c(cnn5Cc5cccc(F)c5)c4)c3c2)c1`, the IC50 turned out to be 71 nM at EGFR (human) [1] and 390 nM at EGFR (human) [2].

With `CCN(CC)Cc1ccn(-c2ccc3ncnc(Nc4ccc(OCc5cccc(F)c5)c(Cl)c4)c3c2)c1`, the half-inhibitory concentration (IC50) is 9 nM on EGFR (human) [1] and 200 nM against EGFR (human) [2].

Take `OC(CNC1CC1)Cn1ccc(-c2ccc3ncnc(Nc4ccc5c(cnn5Cc5cccc(F)c5)c4)c3c2)c1` (configuration not stated): the IC50 on EGFR (human) [1] was 12 nM; against EGFR (human) [2], 356 nM.

As for `CCN(CC)CCN1CCOC(Cn2ccc(-c3ccc4ncnc(Nc5ccc6c(cnn6Cc6cccc(F)c6)c5)c4c3)c2)C1` (configuration not stated), the values for the IC50 at EGFR (human) [1] and on EGFR (human) [2] were 248 nM and 501 nM, respectively.

As to `OCCc1cn(-c2ccc3ncnc(Nc4ccc(OCc5cccc(F)c5)c(Cl)c4)c3c2)cc1CN1CCOCC1`, the half-inhibitory concentration (IC50) on EGFR (human) [1] turned out to be 4 nM; on EGFR (human) [2], 210 nM.

With `O=C(Cn1ccc(-c2ccc3ncnc(Nc4ccc(OCc5cccc(F)c5)c(Cl)c4)c3c2)c1)NCC1(O)CCS(=O)(=O)CC1`, the IC50 against EGFR (human) [1] was 17 nM; against EGFR (human) [2] it was 1550 nM.

With `Fc1cccc(COc2ccc(Nc3ncnc4ccc(-c5cc[nH]c5)cc34)cc2Cl)c1`, the IC50 on EGFR (human) [1] came to 4 nM; at EGFR (human) [2], 50 nM.

Turning to `CS(=O)(=O)N1CCOC(Cn2ccc(-c3ccc4ncnc(Nc5ccc6c(cnn6Cc6cccc(F)c6)c5)c4c3)c2)C1` (configuration not stated), the IC50 against EGFR (human) [1] stood at 257 nM; at EGFR (human) [2], 243 nM.

As for `CC(=O)N[C@@H]1CCN(C(=O)Cn2ccc(-c3ccc4ncnc(Nc5ccc(OCc6cccc(F)c6)c(Cl)c5)c4c3)c2)C1`, the IC50 is 129 nM against EGFR (human) [1] and 626 nM against EGFR (human) [2].

As for `OC(CN1CCCCC1)Cn1ccc(-c2ccc3ncnc(Nc4ccc(OCc5cccc(F)c5)c(Cl)c4)c3c2)c1` (configuration not stated), the IC50 against EGFR (human) [1] is 21 nM; at EGFR (human) [2], 450 nM.

For the molecule `CCN(CC)C[C@H](O)Cn1ccc(-c2ccc3ncnc(Nc4ccc5c(cnn5Cc5cccc(F)c5)c4)c3c2)c1`, the IC50 at EGFR (human) [1] worked out at 38 nM; at EGFR (human) [2], 220 nM.

On to `Fc1cccc(COc2ccc(Nc3ncnc4ccc(-n5cc6c(c5)C(=NOCCN5CCOCC5)CC6)cc34)cc2Cl)c1`, for which the IC50 is 86 nM and 94 nM against EGFR (human) [1]; 20 nM on EGFR (human) [2].

In the case of `Fc1cccc(COc2ccc(Nc3ncnc4ccc(-n5cc(CNCCCN6CCOCC6)c(C(F)(F)F)c5)cc34)cc2Cl)c1`, the IC50 against EGFR (human) [1] was determined as 43 nM; on EGFR (human) [2] it was 310 nM.

Regarding `CN1CCN(Cc2cn(-c3ccc4ncnc(Nc5ccc(OCc6ccccn6)c(Cl)c5)c4c3)cc2CCO)CC1`, the half-inhibitory concentration (IC50) against EGFR (human) [1] amounted to 26 nM; against EGFR (human) [2], 210 nM.

As for `O=S1(=O)CCC(NCCn2ccc(-c3ccc4ncnc(Nc5ccc(OCc6cccc(F)c6)c(Cl)c5)c4c3)c2)CC1`, the half-maximal inhibitory concentration (IC50) against EGFR (human) [1] was determined as 492 nM; on EGFR (human) [2] it was 1420 nM.

For `COCCCN1CCOC(Cn2ccc(-c3ccc4ncnc(Nc5ccc6c(cnn6Cc6cccc(F)c6)c5)c4c3)c2)C1` (configuration not stated), the values for the IC50 at EGFR (human) [1] and at EGFR (human) [2] were 291 nM and 832 nM, respectively.

For `CCN(CC)CCNCc1ccc(-c2ccc3ncnc(Nc4ccc(OCc5cccc(F)c5)c(Cl)c4)c3c2)[nH]1`, the values for the IC50 at EGFR (human) [1] and at EGFR (human) [2] were 18 nM and 1450 nM, respectively.

With `O[C@H](CN1CCC[C@@H]1CN1CCCC1)Cn1ccc(-c2ccc3ncnc(Nc4ccc(OCc5cccc(F)c5)c(Cl)c4)c3c2)c1`, the values for the IC50 against EGFR (human) [1] and on EGFR (human) [2] were 95 nM and 746 nM, respectively.

Consider `CCN(CC)CCNCc1cccn1-c1ccc2ncnc(Nc3ccc(OCc4cccc(F)c4)c(Cl)c3)c2c1`, for which the IC50 against EGFR (human) [1] was determined as 22.5 nM; on EGFR (human) [2] it was 770 nM.

With `OC(CN1CCN(C2CC2)CC1)Cn1ccc(-c2ccc3ncnc(Nc4ccc(OCc5cccc(F)c5)c(Cl)c4)c3c2)c1` (configuration not stated), the IC50 is 117 nM against EGFR (human) [1] and 521 nM against EGFR (human) [2].

As to `O[C@H](CN1CCOCC1)Cn1ccc(-c2ccc3ncnc(Nc4ccc(OCc5cccc(F)c5)c(Cl)c4)c3c2)c1`, the IC50 against EGFR (human) [1] turned out to be 18 nM; against EGFR (human) [2], 511 nM.

On to `O=C(Cn1ccc(-c2ccc3ncnc(Nc4ccc(OCc5cccc(F)c5)c(Cl)c4)c3c2)c1)N[C@H]1CC[C@H](O)CC1`, for which the results for the IC50 against EGFR (human) [1] and against EGFR (human) [2] were 263 nM and 327 nM, respectively.

As for `CN1CCN(CCNCc2cn(-c3ccc4ncnc(Nc5ccc(OCc6cccc(F)c6)c(Cl)c5)c4c3)cc2C(F)(F)F)CC1`, the IC50 against EGFR (human) [1] was found to be 32 nM; at EGFR (human) [2], 160 nM.

As for `Fc1cccc(COc2ccc(Nc3ncnc4ccc(-n5cc(CNCCN6CCCC6)c(C(F)(F)F)c5)cc34)cc2Cl)c1`, the IC50 stood at 55 nM against EGFR (human) [1] and 1040 nM on EGFR (human) [2].

With `COCCNCc1cn(-c2ccc3ncnc(Nc4ccc(OCc5cccc(F)c5)c(Cl)c4)c3c2)cc1C(F)(F)F`, the values for the IC50 against EGFR (human) [1] and at EGFR (human) [2] were 49 nM and 480 nM, respectively.

In the case of `Fc1ccc(Nc2ncnc3ccc(-c4ccc[nH]4)cc23)cc1Cl`, the IC50 was found to be 11 nM on EGFR (human) [1] and 21 nM on EGFR (human) [2].

For the molecule `Fc1cccc(COc2ccc(Nc3ncnc4ccc(-c5ccn(C[C@H]6CN7CCC[C@@H]7CO6)c5)cc34)cc2Cl)c1`, the IC50 at EGFR (human) [1] amounted to 74 nM; on EGFR (human) [2] it was 1320 nM.

In the case of `O=C(Cn1ccc(-c2ccc3ncnc(Nc4ccc(OCc5cccc(F)c5)c(Cl)c4)c3c2)c1)NC1CCS(=O)(=O)CC1`, the concentration for half-maximal inhibition (IC50) against EGFR (human) [1] worked out at 140 nM; on EGFR (human) [2], 3710 nM.

For `CN1CCN(CC(O)Cn2ccc(-c3ccc4ncnc(Nc5ccc(OCc6cccc(F)c6)c(Cl)c5)c4c3)c2)CC1` (configuration not stated), the IC50 on EGFR (human) [1] was 36 nM; on EGFR (human) [2], 84 nM.

Regarding `Fc1cccc(Cn2ncc3cc(Nc4ncnc5ccc(-c6ccn(CCN7CCOCC7)c6)cc45)ccc32)c1`, the IC50 at EGFR (human) [1] came out at 6 nM; at EGFR (human) [2], 100 nM.

As for `Fc1cccc(COc2ccc(Nc3ncnc4ccc(-c5ccn(CCN6CCCC6)c5)cc34)cc2Cl)c1`, the figures for the IC50 against EGFR (human) [1] and at EGFR (human) [2] were 4 nM and 40 nM, respectively.

Consider `CN1CCN(C(=O)c2cn(-c3ccc4ncnc(Nc5ccc(OCc6cccc(F)c6)c(Cl)c5)c4c3)cc2CCO)CC1`, for which the IC50 against EGFR (human) [1] was found to be 5 nM; against EGFR (human) [2], 1430 nM.

For the molecule `O=C(NCCN1CCOCC1)c1cn(-c2ccc3ncnc(Nc4ccc(OCc5cccc(F)c5)c(Cl)c4)c3c2)cc1CCO`, the figures for the IC50 against EGFR (human) [1] and against EGFR (human) [2] were 20 nM and 2360 nM, respectively.

Take `CN1CCN(CCNC(=O)c2cn(-c3ccc4ncnc(Nc5ccc(OCc6cccc(F)c6)c(Cl)c5)c4c3)cc2CCO)CC1`: the IC50 at EGFR (human) [1] was 7.5 nM; at EGFR (human) [2], 10 nM.

As for `OCCc1cn(-c2ccc3ncnc(Nc4ccc(OCc5ccccn5)c(Cl)c4)c3c2)cc1CN1CCCCC1`, the IC50 stood at 32 nM on EGFR (human) [1] and 3 nM against EGFR (human) [2].

Consider `OC1CCN(CC(O)Cn2ccc(-c3ccc4ncnc(Nc5ccc6c(cnn6Cc6cccc(F)c6)c5)c4c3)c2)CC1` (configuration not stated), for which the IC50 at EGFR (human) [1] is 24 nM; at EGFR (human) [2], 1560 nM.

For `Clc1cc(Nc2ncnc3ccc(-c4ccc[nH]4)cc23)ccc1OCc1ccccn1`, the IC50 against EGFR (human) [1] was 5 nM; at EGFR (human) [2], 90 nM.

Take `CS(=O)(=O)CCN1CCOC(Cn2ccc(-c3ccc4ncnc(Nc5ccc6c(cnn6Cc6cccc(F)c6)c5)c4c3)c2)C1` (configuration not stated): the IC50 worked out at 236 nM on EGFR (human) [1] and 572 nM at EGFR (human) [2].

In the case of `O=C(Cn1ccc(-c2ccc3ncnc(Nc4ccc(OCc5cccc(F)c5)c(Cl)c4)c3c2)c1)N1CCOCC1`, the IC50 is 22 nM on EGFR (human) [1] and 770 nM against EGFR (human) [2].

Consider `O[C@H](CN1CCOCC1)Cn1ccc(-c2ccc3ncnc(Nc4ccc5c(cnn5Cc5cccc(F)c5)c4)c3c2)c1`, for which the figures for the IC50 at EGFR (human) [1] and against EGFR (human) [2] were 19 nM and 749 nM, respectively.

With `O=S1(=O)CCC(CNCc2cc(-c3ccc4ncnc(Nc5ccc6c(cnn6Cc6cccc(F)c6)c5)c4c3)c[nH]2)CC1`, the IC50 against EGFR (human) [1] is 7 nM; at EGFR (human) [2], 1100 nM.

On to `OC(CN1CC=CC1)Cn1ccc(-c2ccc3ncnc(Nc4ccc(OCc5cccc(F)c5)c(Cl)c4)c3c2)c1` (configuration not stated), for which the IC50 was determined as 22 nM on EGFR (human) [1] and 431 nM on EGFR (human) [2].

Consider `CS(=O)(=O)CCNCc1ccc(-c2ccc3ncnc(Nc4ccc(OCc5ccccn5)c(Cl)c4)c3c2)[nH]1`, for which the figures for the half-inhibitory concentration (IC50) on EGFR (human) [1] and against EGFR (human) [2] were 13 nM and 570 nM, respectively.

On to `OCCN1CCOC(Cn2ccc(-c3ccc4ncnc(Nc5ccc6c(cnn6Cc6cccc(F)c6)c5)c4c3)c2)C1` (configuration not stated), for which the half-inhibitory concentration (IC50) worked out at 205 nM at EGFR (human) [1] and 477 nM on EGFR (human) [2].
